These results are taken from patent US20250163062A1, “WNT PATHWAY INHIBITOR COMPOUNDS” (ADLAI NORTYE BIOPHARMA CO., LTD., priority 2022, published 2025).

Holding throughout (format): cell-based
Test [1] relates to Colo205-LUC-TCF/LEF reporter gene. In words: Colo205-LUC-TCF/LEF M1 reporter cell line luciferase inhibition. Particulars: 4 h, 4 hours incubation, firefly luciferase signal. As to the method: Colo205 cell line (Cell Bank of Chinese Academy of Sciences, Cat #TCHul02) was purchased from the Cell Bank of Chinese Academy of Sciences. After expansion and subculture, during the exponential growth phase, luciferase reporter plasmid (Promega) driven by TCF/LEF transcription factor was transfected by lipo3000 liposome transfection. The plasmid carries a resistance gene for resistance screening. Transfection was carried out in 10 cm culture dishes using conventional complete medium without resistance. After 2 days, the medium with resistance was replaced, and the culture was continued. After that, the medium with resistance was replaced every 2 days, and the suspended cells were discarded. The original medium was centrifuged to remove cells and debris and retained as an adaptive medium. When the cells covered the culture dish, the cells were digested, counted, and passaged in a 96-well plate, so that the average number of cells contained in each well was 1.5/well, and the adaptive medium was used for passage. The rest of the cells were frozen. After passage, culture for 4 hours to allow the cells to adhere to the wall, and then observe the number of cells in each well under a microscope. Wells with only 1 cell per well were labeled as monoclonal wells. Afterwards, normal culture was performed, and the culture medium was replaced every 2 days, and observed. There are wells where the monoclonal cells continue to grow in the early stage, and they are labeled twice, and can be replaced with normal medium with resistance. When a monoclonal well was overgrown with a 96-well plate, it is digested and passaged to a 24-well culture plate. After the 24-well plate is overgrown, it is passaged to a 96-well plate and a 6-well plate. The cells in a 96-well plate are at least 6 wells, of which 3 wells were added with known Wnt inhibitors, and the other 3 wells were not treated. After 24 hours, the cells in the 96-well plate were added with a fluorescence detection reagent to detect the fluorescence intensity. Cell lines with fluorescent expression when not treated and decreased fluorescent light after inhibition were selected and further cultured. The Colo205-LUC-TCF/LEF-M1 cell line is one of the cell lines screened above. Its growth curve, cell shape, and cell growth state are similar to those of the original Colo205 cells, and the ratio of the fluorescent signals of the inhibitor-treated and untreated cells is the largest among all cell lines, and the ratio can reach 4-5 times when inhibited at 4 hours, which was completely suitable for the screening of Wnt inhibitors in the later stage.
The Colo205-LUC-TCF/LEF M1 cell line is a reporter tool cell stably transfected with the pGL4.49-LUC2-TCF/LEF vector. The β-catenin Wnt pathway is continuously activated. After adding the inhibitor, the Wnt pathway is inhibited. The expression of firefly luciferase regulated by the TCF/LEF cis-element decreased, and after adding the detection substrate, the detected light signal decreased accordingly, so as to detect the inhibitory effect of the compound.
To a 96-well cell culture plate, add 100 uL of the compound with a maximum concentration of 20 uM to each well, and make a 3-fold serial dilution of the compound concentration. Then 10,000 colo205 cells stably transfected with the reporter gene and 100 uL medium were inoculated into each well, and corresponding positive and negative control wells were made at the same time. Put the cells in a 5% CO2 incubator and incubate at 37° C. for 4 hours. After 4 hours, remove the culture medium, add 100 μL of reagent (Promega) containing the corresponding firefly luciferase substrate to each well, and measure the activity of luciferase reporter gene. Luminescence intensity was read with SpectraMax in full wavelength mode. […]

Test [2] concerns Colo205. In words: Proliferation inhibition test, Wnt mutant cell line Colo205. Particulars: Homo sapiens, COLO 205, 96 h, Colo205, 96 h culture with compound; read-out: Antiproliferation IC50 Colo205. An excerpt: (§1) The cell lines used in the experiment are Colo205, H929, HepG2, and DU4475, which have sustained activation of the Wnt pathway and whose proliferation is Wnt pathway-dependent. On the other hand, RKO cell line, in which normally the Wnt pathway is not activated and whose proliferation is not Wnt pathway-dependent, was used as a control cell line. This was done to determine whether the inhibitory effect of the compound of the present disclosure on Wnt-dependent proliferation is due to other nonspecific toxicity.
(§2) Colo205, H929, DU4475, HepG2 and RKO cell lines cultured in their respective culture media were treated in the logarithmic growth phase, and the cells were collected and prepared into a uniform cell suspension of known concentration, and then added to a 96-well cell culture plate so that each well contained 1000-4000 cells. Place in a 5% CO2 cell culture incubator and culture at 37° C. for 20-24 h. On the second day, add the completely dissolved, 3-fold gradient dilution compound to each cell culture well to make the final maximum concentration in the cell culture well 10 uM, and continue to culture for 96 h. This test uses Promega's cell activity detection test for detection. The more the cells proliferate, the stronger the final signal intensity. The detection instrument is SpectraMax, full wavelength mode. The wells with only DMSO added were used as positive control wells, and the wells without cells inoculated were used as negative control wells.

In test [3] the test system is DU4475. In words: Proliferation inhibition test, Wnt mutant cell line DU4475. Particulars: Homo sapiens, DU-4475, 96 h, DU4475, 96 h culture with compound; read-out: Antiproliferation IC50 DU4475.
Description: as §1, §2

For test [4], the system named is H929. Description: Proliferation inhibition test, Wnt mutant cell line H929. Particulars: Homo sapiens, NCI-H929, 96 h, H929, 96 h culture with compound; read-out: Antiproliferation IC50 H929.
Description: as §1, §2

The test system of test [5] is HepG2. In words: Proliferation inhibition test, Wnt mutant cell line HepG2. As to conditions: Homo sapiens, HepG2, 96 h, HepG2, 96 h culture with compound; read-out: Antiproliferation IC50 HepG2.
Description: as §1, §2

Test [6] relates to RKO. In words: Proliferation inhibition test, non-Wnt mutant control cell line RKO. Particulars: Homo sapiens; RKO (Wnt pathway not activated, control), 96 h culture, maximum concentration 10 uM; read-out: Antiproliferation IC50 RKO.
Description: as §1, §2

For `CN1c2nc(NCc3ccc(Oc4ccc(C(F)(F)F)nc4CC#N)nc3)nc3c2N(CCC3)C(=O)[C@@H]1CO` [Compound 17, (S)-2-(3-((5-(((5-(Hydroxymethyl)-4-methyl-6-carbonyl-5,6,9,10-tetrahydro-4H,8H-pyrido[3,2,1-de]pteridin-2-yl)amino)methyl)pyridin-2-yl)oxy)-6-(trifluoromethyl)pyridin-2-yl)acetonitrile], the IC50 in test [1] was 264 nM; in test [2] it was 179 nM; in test [3], 42.9 nM; in test [4] it was 599 nM; in test [5], 879 nM; in test [6] it was over 10000 nM.

As for `[2H]C([2H])([2H])N1c2nc(NCc3ccc(Oc4cnc(C(F)(F)F)nc4CC)nc3)nc3c2N(CCC3)C(=O)[C@]1(C)CO` [Compound 7, (S)-2-(((6-((4-ethyl-2-(trifluoromethyl)pyrimidin-5-yl)oxy)pyridin-3-yl)methyl)amino)-5-(hydroxymethyl)-5-methyl-4-(methyl-d3)-4,5,9,10-tetrahydro-6H,8H-pyrido[3,2,1-de]pteridin-6-one], the IC50 in test [1] is 10.7 nM; in test [2] it was 5.54 nM; in test [3] it was 3.59 nM; in test [4], 52.2 nM; in test [5], 15.6 nM; in test [6], over 10000 nM.

For the compound `[2H]C([2H])([2H])N1c2nc(NCc3ccc(Oc4ccc(C(F)(F)F)nc4F)nc3)nc3c2N(CCC3)C(=O)[C@]1(C)CO` [Compound 18, (S)-2-(((6-((2-fluoro-6-(trifluoromethyl)pyridin-3-yl)oxy)pyridin-3-yl)methyl)amino)-5-(hydroxymethyl)-5-methyl-4-(methyl-d3)-4,5,9,10-tetrahydro-6H,8H-pyrido[3,2,1-de]pteridin-6-one], the IC50 is 29.9 nM in test [1]; 7.43 nM in test [2]; 6.72 nM in test [3]; 78.8 nM in test [4]; 22.1 nM in test [5]; over 10000 nM in test [6].

`CN1c2nc(NCc3ccc(Oc4ccc(C(F)(F)F)nc4N4CCCC4)nc3)nc3c2N(CCC3)C(=O)[C@]1(C)CO` [Compound 13, (S)-5-(Hydroxymethyl)-4,5-dimethyl-2-(((6-((2-(pyrrolidin-1-yl)-6-(trifluoromethyl)pyridin-3-yl)oxy)pyridin-3-yl)methyl)amino)-4,5,9,10-tetrahydro-6H,8H-pyrido[3,2,1-de]pteridin-6-one]: the IC50 is 6.86 nM in test [1]; 11.5 nM in test [2]; 1.58 nM in test [3]; 54 nM in test [4]; 19.1 nM in test [5]; over 10000 nM in test [6].

Consider `[2H]C([2H])([2H])N1c2nc(NCc3ccc(Oc4cnc(C(F)(F)F)nc4C)nc3)nc3c2N(CCC3)C(=O)[C@]1(C)CO` [Compound 5, (S)-5-(Hydroxymethyl)-5-methyl-4-(methyl-d3)-2-(((6-((4-methyl-2-(trifluoromethyl)pyrimidin-5-yl)oxy)pyridin-3-yl)methyl)amino)-4,5,9,10-tetrahydro-6H,8H-pyrido[3,2,1-de]pteridin-6-one], for which the IC50 was 50.9 nM in test [1]; 20.6 nM in test [2]; 14.4 nM in test [3]; 160 nM in test [4]; 33.5 nM in test [5]; over 10000 nM in test [6].

As to `Cc1nc(C(F)(F)F)ncc1Oc1ccc(CNc2nc3c4c(n2)N(C)[C@@H]([C@H](C)O)C(=O)N4CCC3)cn1` [Compound 25], the IC50 was 69.4 nM in test [1]; 64.5 nM in test [2]; 15.9 nM in test [3]; 98 nM in test [4]; 68 nM in test [5]; over 10000 nM in test [6].

For `Cc1nc(C(F)(F)F)ncc1Oc1ncc(CNc2nc3c4c(n2)N(C)[C@@](C)(CO)C(=O)N4CCC3)cc1F` [Compound 28], the IC50 in test [1] was 27.4 nM; in test [2], 25.7 nM; in test [3], 16.8 nM; in test [4] it was 126 nM; in test [5], 61.3 nM; in test [6], over 10000 nM.

Take `[2H]C([2H])([2H])N1c2nc(NCc3ccc(Oc4cnc(C(F)(F)F)nc4C4CC4)nc3)nc3c2N(CCC3)C(=O)[C@]1(C)CO` [Compound 10, (S)-2-(((6-((4-cyclopropyl-2-(trifluoromethyl)pyrimidin-5-yl)oxy)pyridin-3-yl)methyl)amino)-5-(hydroxymethyl)-5-methyl-4-(methyl-d3)-4,5,9,10-tetrahydro-6H,8H-pyrido[3,2,1-de]pteridin-6-one]: the IC50 in test [1] was 3.89 nM; in test [2], 2.34 nM; in test [3] it was under 0.5 nM; in test [4], 18 nM; in test [5], 3.54 nM; in test [6], over 10000 nM.

`[2H]C([2H])([2H])N1c2nc(NCc3ccc(Oc4cnc(C(F)(F)F)nc4CC)nc3)nc3c2N(CCC3)C(=O)[C@@H]1CO` [Compound 8, (S)-2-(((6-((4-ethyl-2-(trifluoromethyl)pyrimidin-5-yl)oxy)pyridin-3-yl)methyl)amino)-5-(hydroxymethyl)-4-(methyl-d3)-4,5,9,10-tetrahydro-6H,8H-pyrido[3,2,1-de]pteridin-6-one]: the IC50 in test [1] was 32 nM; in test [2], 24.2 nM; in test [3] it was 9.6 nM; in test [4], 86.9 nM; in test [5], 35.1 nM; in test [6], over 10000 nM.
